How the values were obtained:
canonical Wnt signaling = experiment: TOP Flash Wnt reporter assay in G361 cells; type: cell-based, human
Experimental: Murine fibroblast L cells stably transfected with a construct expressing high levels of human Wnt3A were used. The cells were grown in DMEM containing 4.5 g/L Glucose, 114 mg/L Sodium Pyruvate, and 2 mM L-glutamine, supplemented with 10% fetal bovine serum (Gemini Bio Products), 2 mM L-glutamine, and 2.5 ml of 10,000 U/ml penicillin/streptomycin mixture (Gibco, Life Technologies). Conditioned media was harvested in two batches, once during routine media change after 2 days of seeding the cells and once more when the plates were confluent. The cells were trypsinized as described earlier using 0.025% trypsin (Lonza) and pelleting the cells by a spin at 4000 rpm for 5 minutes and aspirating and filtering the supernatant through a 0.2 micron filter to obtain the conditioned media. The two batches of conditioned media were mixed 1:1 and stored in aliquots at −80° C. for future use.
The TOPflash/FOPflash (Millipore) reporter assay was performed on G361 cells to assess the effect of 1-benzyl I3C on β-catenin driven Wnt transcriptional activity. TOPflash is a TCF/LEF responsive luciferase construct encoding the firefly luciferase reporter under the control of a minimal (m) CMV promoter and tandem repeats of a TCF/LEF transcriptional response element (TRE). FOPflash is a similar construct with the LEF-1 binding site mutated which serves as the negative control. G361 cells were cultured to approximately 80% confluency in a 6 well clear bottom plate (Nunc). The TOPflash/FOPflash construct was transfected using Superfect Transfection Reagent (Qiagen.) according to the manufactures instructions. […] 20 μl of supernatant from each sample was combined with 100 μl luciferase substrate (Promega) and emitted fluorescence was measured using luminometer, Lumat LB 9507 (EG&G Berthold) and the relative light units (RLU) were recorded. The RLU/μg for each sample was calculated by dividing the data obtained with their specific protein concentration determined by a Bradford assay using 1× BioRad Protein Assay reagent and measuring O.D at 595 nm. […]

DM738 cells = experiment: Flow cytometry analysis of DNA content, DM738; type: cell-based, human; conditions: maximal dose of 200 μM I3C
Experimental: Melanoma cells were treated with the indicated concentrations of 1-benzyl […] in triplicates every 24 hours and harvested at the end of 24, 48 or 72 hours for cell cycle analysis. The DNA content of propidium iodide stained nuclei from harvested cells were determined by flow cytometry. Briefly, cells were hypotonically lysed in […] of DNA staining solution (0.5 mg/mL propidium iodide, 0.1% sodium citrate, and 0.05% Triton-X 100). Emitted fluorescence from the nuclear of wavelengths more than 585 nm was measured with a Coulter Elite instrument with laser output adjusted to deliver 15 mW at 488 nm. Ten thousand nuclei were analyzed from each sample at a rate of 300-500 nuclei/second. The percentage of cells within the G1, S, and G2/M phases of the cell cycle were determined by analysis with the Multicycle computer program provided by Phoenix Flow Systems in the Cancer Research Laboratory Microchemical Facility of the University of California, Berkeley.

phosphorylated Erk/MAPK = experiment: Immunofluorescence of tumor xenograft sections for ERK-p; type: in vivo, human; conditions: I3C treated vs untreated animals
Experimental: (§1) Approximately 1 million G361 melanoma cells in a total volume of 0.1 ml of Matrigel were injected subcutaneously into each lateral flank of NIH III athymic nude mice. The resulting tumors were allowed to grow to a mean starting volume of 146±10 mm^3. The animals were then randomized into two groups; a vehicle control group that was treated with DMSO and an […] treated group that were injected daily with 200 mg/kg body weight of […]. The resulting tumor volumes were measured every other day for four weeks using calipers. The tumor volumes were calculated using the standard formula: […], and changes in tumor volumes were calculated using the formula: 100+{(Tf-Ti)/Ti×100}, where Tf is the final mean tumor volume and Ti is the initial mean tumor volume. At terminal sacrifice, tumor xenografts were harvested, and a portion of each tumor was fixed in 4% para-formaldehyde for 1 hour at room temperature, followed by a phosphate-buffered saline (PBS) wash and subsequently immersed in 3% sucrose overnight at 4° C. The resulting tissues were embedded in OCT and 10 μm thin sections were taken for immunofluorescence studies.

SK-MEL-24 cells = experiment: CCK-8 proliferation assay, SK-MEL-24; type: cell-based, human; conditions: 200 μM I3C, 72 hours; wild type BRAF
Experimental: Subsequently inhibition of proliferation was assessed using Cell counting Kit-8 (Dojindo) as per the protocol in the user's manual. Briefly, 50 μl of the CCK-8 solution was added to each well along with 450 μl media and incubated for 2-3 hours. The absorbance was read at 450 nm and % inhibition was calculated for each condition standardizing DMSO to zero using the formula: [(100-Value of treatment/Value of DMSO treated control)×100]

MITF-M = experiment: Immunofluorescence of tumor xenograft sections for MITF-M; type: in vivo, human; conditions: I3C 200 mg/kg, terminal sacrifice, relative to vehicle
Experimental: as §1

BRN2 = experiment: Chromatin immunoprecipitation, BRN2 at MITF-M promoter; type: cell-based, human; conditions: G-361 cells, 200 μM I3C, 48 hours
Experimental: […] Proteins were crosslinked to DNA by the addition of formaldehyde at 2.5% of the final concentration for 5 minutes at room temperature to cultured cells. Fixation was quenched with glycine for a final concentration of 125 mmol/1 for 5 minutes. Harvested cells were sonicated and the chromatin was immunoprecipitated overnight and 15 μl of mouse anti-Brn2 antibodies (Santa Cruz Biotechnology) was added to the cell lysates to immunoprecipitate the chromatin-bound Brn2 protein. A fragment of the MITF-M promoter (−170+120) containing the BRN2 binding site (−53 to −27) was amplified using the primers—MITF-M Forward: 5′-CGTCACTTAAAAAGGTACCTTTATATTTATG-3′ (SEQ ID NO:7) MITF-M Reverse: 5′-TGT TTTAGC TAGCACCAATCCAGTGAGAGACGG-3′ (SEQ ID NO:8) by cycling 36 times (95° C., 30 s/52° C. 30 s/72° C., 30 s) with a 72° C., 10 min extension. The PCR products were electrophoretically fractionated on a 1.5% agarose gel and visualized using a transilluminator.

## OCc1cn(Cc2ccccc2)c2ccccc12 [1-benzyl I3C, 1-benzyl indole-3-carbinol]
Canonical Wnt signaling; G361 cells in Wnt conditioned media, 1-benzyl I3C 24 hours
  Wnt signaling (TOP luciferase activity): Wnt signaling was significantly attenuated
Canonical Wnt signaling; G361 cells, 1-benzyl I3C 24 hours
  1-benzyl I3C induced inhibition of luciferase activity, constitutively active LRP6 transfected cells: significantly rescued
Canonical Wnt signaling; G361 cells, 1-benzyl I3C 24 hours vs vehicle
  Wnt signaling (luciferase activity), wild-type vector transfected cells: significantly inhibited the Wnt signaling

## OCc1c[nH]c2ccccc12 [I3C, indole-3-carbinol]
DM738 cells
  G1 cell cycle arrest: significant G1 cell cycle arrest
Phosphorylated Erk/MAPK
  level of phosphorylated Erk/MAPK in tumor xenografts: strongly down regulated
SK-MEL-24 cells
  sensitivity to anti-proliferative effects: significantly less sensitive
MITF-M
  MITF-M protein in tumor xenograft sections: strong down-regulation of MITF-M protein
BRN2
  endogenous BRN2 binding to the MITF-M promoter: significantly down regulated endogenous BRN-2 interactions with this promoter

— patent US20180369195A1, “COMBINATION THERAPY FOR TREATMENT OF MELANOMA” (The Regents of the University of California, priority 2015, published 2018)
